# From ChEMBL document CHEMBL1138868, “Interpreting steep dose-response curves in early inhibitor discovery” (J Med Chem, 2006)
# Columns and labels:
# [1] = target: T1, Beta-lactamase (Escherichia coli K-12, UniProt P00811); assay: Inhibition of 1 nM AmpC beta lactamase
# [2] = target: T1, Beta-lactamase; assay: Inhibition of 10 nM AmpC beta lactamase
# [3] = target: T1, Beta-lactamase; assay: Inhibition of 20 nM AmpC beta lactamase
# [4] = target: T1, Beta-lactamase; assay: Inhibition of 30 nM AmpC beta lactamase
# T1 sequence (P00811 whole entry): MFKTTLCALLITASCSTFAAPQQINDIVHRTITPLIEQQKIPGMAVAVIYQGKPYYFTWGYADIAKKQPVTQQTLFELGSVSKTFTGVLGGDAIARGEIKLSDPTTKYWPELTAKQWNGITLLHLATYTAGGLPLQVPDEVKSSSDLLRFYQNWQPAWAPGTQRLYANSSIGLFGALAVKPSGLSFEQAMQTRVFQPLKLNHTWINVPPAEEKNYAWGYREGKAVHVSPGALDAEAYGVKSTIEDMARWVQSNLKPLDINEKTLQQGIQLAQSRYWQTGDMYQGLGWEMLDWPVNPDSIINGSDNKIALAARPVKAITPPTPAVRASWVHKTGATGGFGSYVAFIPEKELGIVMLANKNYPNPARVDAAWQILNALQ
SMILES,IC50 [1],IC50 [2],IC50 [3],IC50 [4]
O=C1OC(c2ccc(O)cc2)(c2ccc(O)cc2)c2c(I)c(I)c(I)c(I)c21 [TETRAIODOPHENOLPHTHALEINE],3.8 µM,20 µM,19 µM,
CC(=O)c1c(O)c(C)c(O)c(Cc2c(O)c3c(c(C(=O)/C=C/c4ccccc4)c2O)OC(C)(C)C=C3)c1O [ROTTLERIN],1.8 µM,21 µM,,76 µM
